{"source": "patent US10265419B2", "about": "“Intraoperative determination of nerve location” (Novadaq Technologies ULC, priority 2005, dated 2019)", "key": {"[1]": {"details": "cited from earlier work"}, "cavernous nerves": {"test_system": "cavernous nerves", "experiment": "NIRF imaging of cavernous nerves after intracrural ICG injection in rats", "type": "in vivo", "text": "The area was examined for retrograde axonal transport at different time points, using a NIRF intraoperative imaging system (SPY®, Novadaq Technologies Inc., Mississauga, Ontario, Canada) that illuminates tissues with a 805 nm laser and captures images with a camera sensitive to infrared fluorescence. Near infrared microscopy and conventional histology were used to confirm the macroscopically identified fluorescent structures. […] (These were specific time points at which examinations were made. […] The fluorescent nerves were then excised."}}}
{"compound": "CC1(C)C(/C=C/C=C/C=C/C=C2\\N(CCCCS(=O)(=O)O)c3ccc4ccccc4c3C2(C)C)=[N+](CCCCS(=O)(=O)[O-])c2ccc3ccccc3c21", "note": "[ICG, indocyanine green]", "values": [{"measurement": "metabolism in the body", "setting": "[1]; after intravenous injection", "result": "not metabolized in the body"}, {"measurement": "route of excretion", "setting": "[1]; after intravenous injection", "result": "excreted exclusively by the liver"}, {"measurement": "reabsorption from the intestine / enterohepatic recirculation", "setting": "[1]; in vivo", "result": "not reabsorbed from the intestine and does not undergo enterohepatic recirculation"}, {"measurement": "time post-injection of highest fluorescence intensity", "setting": "cavernous nerves; NIRF imaging", "result": "18 and at 24"}, {"measurement": "fluorescence of the cavernous nerves at longer post-injection periods", "setting": "cavernous nerves; e.g. 30 days post-injection", "result": "not detectable"}]}
